Assay results as given in article PMC3152585 (Dental materials : official publication of the Academy of …, 2011).
≈ marks a conversion by molar mass, not a printed value. Where “and” joins values, the source holds several entries; their conditions need not be identical. Equal entries are not always repeated. Marks after values point to notes of the source that are not given here. Blank lines part the entries; values can stand above or below the molecule they belong to.

What was measured:
[1] = biological target: recombinant human MMP-9 (rhMMP-9) (Homo sapiens, UniProt P14780); test: Sensolyte Generic MMP colorimetric assay with soluble rhMMP-9; settings: for % Inhibition of soluble rhMMP-9: alcohol 4.28 M; for % Inhibition of soluble rhMMP-9 / IC50 (moles/L) for rhMMP-9: mean ± SEM, n=5; for IC50 (moles/L) for rhMMP-9: from regression of percent inhibition vs alcohol concentration
[2] = system: MMP-2; settings: 5 wt% monomeric HEMA, PAGE gels; cited from earlier work
[3] = system: matrix-bound endogenous MMPs of dentin; test: Solubilization of collagen peptides; assay type: biochemical, human; settings: 30 days, vs buffer control
[4] = physchem; settings: aqueous buffer
[5] = system: matrix-bound endogenous MMPs of dentin; test: Loss of dry mass of demineralized dentin beams over 30 days; assay type: biochemical, human; settings: for % Inhibition (loss of dry mass): vs buffer control; for Loss of dry mass (%): mean ± SEM, n=10, buffer control -21.02
[6] = read-out: % Inhibition of soluble rhMMP-9

Sequence of recombinant human MMP-9 (rhMMP-9) (P14780 107-707 limits assumed): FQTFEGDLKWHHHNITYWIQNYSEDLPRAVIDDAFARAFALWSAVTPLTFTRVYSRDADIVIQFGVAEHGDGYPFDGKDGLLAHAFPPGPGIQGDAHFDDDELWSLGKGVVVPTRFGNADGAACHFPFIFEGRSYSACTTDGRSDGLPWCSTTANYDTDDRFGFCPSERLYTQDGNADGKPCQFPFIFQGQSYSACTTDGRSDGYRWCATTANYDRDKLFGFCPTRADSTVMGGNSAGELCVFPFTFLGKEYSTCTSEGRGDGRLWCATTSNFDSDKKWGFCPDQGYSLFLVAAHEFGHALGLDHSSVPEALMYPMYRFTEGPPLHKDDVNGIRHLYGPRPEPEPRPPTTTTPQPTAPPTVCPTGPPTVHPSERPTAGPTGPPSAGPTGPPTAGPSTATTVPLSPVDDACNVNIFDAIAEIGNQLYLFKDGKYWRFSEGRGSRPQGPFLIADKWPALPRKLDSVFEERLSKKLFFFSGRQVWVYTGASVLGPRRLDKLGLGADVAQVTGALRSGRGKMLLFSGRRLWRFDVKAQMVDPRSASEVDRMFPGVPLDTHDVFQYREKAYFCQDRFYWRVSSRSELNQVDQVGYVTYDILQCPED

Structure (SMILES): C=C(C)C(=O)OCCO [HEMA, 2-hydroxyethylmethacrylate]
- Inhibition of MMP-2 [2]: about 80%
- % Inhibition (solubilization of HYP) ([3]; 0.86 M): 88.1%
- % Inhibition (solubilization of HYP) ([3]; […]): 83.6%
- % Inhibition (solubilization of HYP) ([3]; alcohol 4.28 M): 85.6%
- solubility [4]: 4280 mM (≈ 557 mg/mL)
- IC50 [1]: 100 ± 90 mM
- Inhibition of rhMMP-9 ([1]; 2.2 vol% HEMA, data not shown): 98%
- Inhibition of MMP-9 relative to the same concentration of ethanol ([1]; compared to ethanol): nineteen times more
- % Inhibition (loss of dry mass) ([5]; 0.86 M): 80.7%
- % Inhibition (loss of dry mass) ([5]; […]): 79.1%
- % Inhibition (loss of dry mass) ([5]; alcohol 4.28 M): 80.8%

Structure (SMILES): CCCCCO [1-pentanol]
- inhibition at 860000 µM [1, 6]: 28.5 ± 0.54%

Structure (SMILES): OCCCO [1,3-propanediol]
- Loss of dry mass (%) ([5]; alcohol 4.28 M): -3.22 ± 0.31% (10)^A

Structure (SMILES): CCCCCCO [1-hexanol]
- inhibition at 170000 µM [1, 6]: 28.3 ± 0.4%

Structure (SMILES): CCCO [1-propanol]
- % Inhibition (solubilization of HYP) ([3]; alcohol 4.28 M): 78.2%
- % Inhibition of soluble rhMMP-9 [1]: 79.7 ± 0.18%^F
- IC50 (moles/L) for rhMMP-9 [1]: 2.7 moles/L and 2.7 ± 0.13%^d moles/L
- % Inhibition (loss of dry mass) ([5]; alcohol 4.28 M): 80.2%

Structure (SMILES): CCCCCCCCO [1-octanol]
- IC50 (moles/L) for rhMMP-9 [1]: 0.3 ± 0.22%^b moles/L
- inhibition at 170000 µM [1, 6]: 25.4 ± 1.21%

Structure (SMILES): CC(C)(C)O [tert-butanol]
- Loss of dry mass (%) ([5]; alcohol 4.28 M): -3.52 ± 0.28% (10)^A
- % Inhibition (loss of dry mass) ([5]; alcohol 4.28 M): 83.3%

Structure (SMILES): CCC(C)O (stereo not drawn) [2-butanol]
- % Inhibition (solubilization of HYP) ([3]; alcohol […]): 82.9%
- % Inhibition of soluble rhMMP-9 [1]: 78.7 ± 0.94%^F
- IC50 (moles/L) for rhMMP-9 [1]: 0.5 ± 0.04%^b moles/L
- % Inhibition (loss of dry mass) ([5]; alcohol […]): 80.2%

Structure (SMILES): CCCCC(O)CC (stereo not drawn) [3-heptanol]
- IC50 (moles/L) for rhMMP-9 [1]: 0.5 ± 0.04%^b moles/L
- inhibition at 170000 µM [1, 6]: 17.1 ± 0.54%

Further lines, results first:

- % Inhibition of soluble rhMMP-9 [1]: 14.3 ± 2.06%^A
- IC50 (moles/L) for rhMMP-9 [1]: 19.6 ± 0.36%^a moles/L
Structure (SMILES): CCO [ethanol]

- IC50 (moles/L) for rhMMP-9 [1]: 3.0 ± 0.18%^d moles/L
- inhibition at 170000 µM [1, 6]: 13.7 ± 2.33%
Structure (SMILES): CCCCCC(C)O (stereo not drawn) [2-heptanol]

- IC50 (moles/L) for rhMMP-9 [1]: 1.1 ± 0.04%^c moles/L
- inhibition at 170000 µM [1, 6]: 17.7 ± 0.27%
Structure (SMILES): CCCCC(O)CCC (stereo not drawn) [4-octanol]

- IC50 (moles/L) for rhMMP-9 [1]: 0.4 ± 0.04%^b moles/L
- inhibition at 170000 µM [1, 6]: 35.1 ± 1.16%
Structure (SMILES): CCCC(O)CC (stereo not drawn) [3-hexanol]

- % Inhibition of soluble rhMMP-9 [1]: 52.7 ± 0.18%^D
- IC50 (moles/L) for rhMMP-9 [1]: 4.4 ± 0.13%^e moles/L
Structure (SMILES): CC(C)O [2-propanol]

- IC50 (moles/L) for rhMMP-9 [1]: 1.6 ± 0.09%^c moles/L
- inhibition at 170000 µM [1, 6]: 13.2 ± 0.67%
Structure (SMILES): CCCCC(C)O (stereo not drawn) [2-hexanol]

- IC50 (moles/L) for rhMMP-9 [1]: 2.7 ± 0.18%^d moles/L
- inhibition at 170000 µM [1, 6]: 21.5 ± 0.63%
Structure (SMILES): CCCCCCC(C)O (stereo not drawn) [2-octanol]
